# Source: ChEMBL document CHEMBL4311969, “Polygala tenuifolia-Acori tatarinowii herbal pair as an inspiration for substituted cinnamic α-asaronol esters: Design, synthesis, anticonvulsant activity, and inhibition of lactate dehydrogenase study” (Eur J Med Chem, 2019)
# Several values for one entry are separate records, joined by “and”; a condition that tells them apart may be missing. Identical values can stand only once. Activity calls are given as the source filed them. No cut-off for these calls is given here.
# Key:
# [1] = Protective index, ratio of TD50 for neurotoxicity against ip dosed Kunming mouse assessed as time remained in rod measured at 0.5 hrs by rotarod test to ED50 for anticonvulsant activity in ip dosed Kunming mouse assessed as MES-induced hind limb extension administered 0.5 hrs; assay type: toxicity, organism-based; details: in vivo, read-out: PI
# [2] = test system: Mus musculus; experiment: Anticonvulsant activity in Kunming mouse assessed as reduction in ScPTZ-induced tonic seizure rate at 300 mg/kg, ip administered 0.5 hrs before ScPTZ stimulation relative to control; assay type: functional; parameters: scale not given: the % may be the effect or the level left
# [3] = test system: Mus musculus; experiment: Anticonvulsant activity in Kunming mouse assessed as reduction in ScPTZ-induced seizure at 300 mg/kg, ip administered 0.25 to 2 hrs before ScPTZ stimulation relative to control; assay type: functional; parameters: scale not given: the % may be the effect or the level left
# [4] = test system: Mus musculus; experiment: Anticonvulsant activity in Kunming mouse assessed as reduction in Sc3-MP-induced tonic seizure rate at 300 mg/kg, ip administered 0.5 hrs before Sc3-MP stimulation relative to control; assay type: functional; parameters: scale not given: the % may be the effect or the level left
# [5] = test system: Mus musculus; experiment: […] activity in ip dosed Kunming mouse assessed as reduction in formalin-induced paw licking administered 0.5 hrs before formalin stimulation; assay type: functional
# [6] = test system: Mus musculus; experiment: Anticonvulsant activity in Kunming mouse assessed as reduction in ScPTZ-induced seizure at 100 mg/kg, ip administered 0.25 and 1 hrs before ScPTZ stimulation relative to control; assay type: functional; parameters: scale not given: the % may be the effect or the level left
# [7] = test system: Mus musculus; experiment: Anticonvulsant activity in Kunming mouse assessed as reduction in Sc3-MP-induced seizure at 300 mg/kg, ip administered 0.25 and 1 hrs before Sc3-MP stimulation relative to control; assay type: functional, organism-based
# [8] = test system: Mus musculus; experiment: Anticonvulsant activity in ip dosed Kunming mouse assessed as MES-induced hind limb extension administered 0.5 hrs before MES stimulation; assay type: functional
# [9] = test system: Mus musculus; experiment: Anticonvulsant activity in Kunming mouse assessed as reduction in ScPTZ-induced clonic seizure at 300 mg/kg, ip administered 0.5 hrs before ScPTZ stimulation relative to control; assay type: functional; parameters: scale not given: the % may be the effect or the level left
# [10] = Protective index, ratio of TD50 for neurotoxicity against ip dosed Kunming mouse assessed as time remained in rod measured at 0.5 hrs by rotarod test to ED50 for anticonvulsant activity in ip dosed Kunming mouse assessed as reduction in ScPTZ-induced seizure administered 0.5 hrs before ScPTZ stimulation; assay type: toxicity, organism-based; details: in vivo, read-out: PI
# [11] = test system: Mus musculus; experiment: Anticonvulsant activity in Kunming mouse assessed as reduction in ScPTZ-induced clonic seizure at 100 mg/kg, ip administered 0.5 hrs before ScPTZ stimulation relative to control; assay type: functional; parameters: scale not given: the % may be the effect or the level left
# [12] = species: Homo sapiens; experiment: Inhibition of human LDH1 at 0.5 mM using sodium pyruvate as substrate by UV-VIS spectrophotometry method relative to control
# [13] = test system: Mus musculus; experiment: Anticonvulsant activity in Kunming mouse assessed as reduction in ScPTZ-induced mortality rate at 300 mg/kg, ip administered 0.5 hrs before ScPTZ stimulation relative to control; assay type: functional; parameters: scale not given: the % may be the effect or the level left
# [14] = test system: Mus musculus; experiment: Anticonvulsant activity in Kunming mouse assessed as reduction in Sc3-MP-induced clonic seizure rate at 300 mg/kg, ip administered 0.5 hrs before Sc3-MP stimulation relative to control; assay type: functional; parameters: scale not given: the % may be the effect or the level left
# [15] = test system: Mus musculus; experiment: Anticonvulsant activity in Kunming mouse assessed as reduction in ScPTZ-induced seizure at 100 mg/kg, ip administered 0.25 to 2 hrs before ScPTZ stimulation relative to control; assay type: functional
# [16] = test system: Mus musculus; experiment: Anticonvulsant activity in Kunming mouse assessed as MES-induced hind limb extension at 100 mg/kg, ip administered 0. 5 to 4 hrs before MES stimulation relative to control; assay type: functional
# [17] = test system: Mus musculus; experiment: Anticonvulsant activity in Kunming mouse assessed as reduction in Sc3-MP-induced seizure ip dosed measured at 0.5 hrs before Sc3-MP stimulation; assay type: functional
# [18] = Protective index, ratio of TD50 for neurotoxicity against ip dosed Kunming mouse assessed as time remained in rod measured at 0.5 hrs by rotarod test to ED50 for anticonvulsant activity in ip dosed Kunming mouse assessed as reduction in Sc3-MP-induced seizure administered 0.5 hrs before Sc3-MP stimulation; assay type: toxicity, organism-based; details: in vivo, read-out: PI
# [19] = species: Homo sapiens; experiment: Inhibition of human LDH5 at 0.5 mM using sodium pyruvate as substrate by UV-VIS spectrophotometry method relative to control
# [20] = Protective index, ratio of TD50 for neurotoxicity against ip dosed Kunming mouse assessed as time remained in rod measured at 0.5 hrs by rotarod test to ED50 for […] activity in ip dosed Kunming mouse assessed as reduction in formalin-induced paw licking administered 0.5 hrs before formalin stimulation; assay type: toxicity, organism-based; details: in vivo, read-out: PI
# [21] = test system: Mus musculus; experiment: Anticonvulsant activity in Kunming mouse assessed as MES-induced hind limb extension at 100 mg/kg, ip administered 0. 5 to 2 hrs before MES stimulation; assay type: functional, organism-based
# [22] = test system: Mus musculus; experiment: Anticonvulsant activity in Kunming mouse assessed as reduction in ScPTZ-induced tonic seizure rate at 100 mg/kg, ip administered 0.5 hrs before ScPTZ stimulation relative to control; assay type: functional; parameters: scale not given: the % may be the effect or the level left
# [23] = Neurotoxicity against ip dosed Kunming mouse assessed as time remained in rod measured at 0.5 hrs by rotarod test; assay type: toxicity, organism-based; details: in vivo
# [24] = test system: Mus musculus; experiment: Anticonvulsant activity in Kunming mouse assessed as MES-induced hind limb extension at 50 mg/kg, ip administered 0.5 to 4 hrs before MES stimulation relative to control; assay type: functional
# [25] = test system: Mus musculus; experiment: Anticonvulsant activity in Kunming mouse assessed as reduction in Sc3-MP-induced seizure at 300 mg/kg, ip administered 0.5 hrs before Sc3-MP stimulation relative to control; assay type: functional; parameters: scale not given: the % may be the effect or the level left
# [26] = Neurotoxicity against Kunming mouse assessed as time remained in rod at 100 mg/kg, ip administered 0.5 to 2 hrs by rotarod test; assay type: toxicity, organism-based; details: in vivo
# [27] = test system: Mus musculus; experiment: Anticonvulsant activity in ip dosed Kunming mouse assessed as reduction in ScPTZ-induced seizure administered 0.5 hrs before ScPTZ stimulation; assay type: functional
# [28] = Drug metabolism in Sprague-Dawley rat assessed as retention time by HPLC/MS analysis; assay type: ADME
# [29] = test system: Mus musculus; experiment: Anticonvulsant activity in Kunming mouse assessed as MES-induced hind limb extension at 100 mg/kg, ip administered 3 hrs before MES stimulation; assay type: functional, organism-based
# [30] = test system: Mus musculus; experiment: Anticonvulsant activity in Kunming mouse assessed as MES-induced hind limb extension at 50 mg/kg, ip administered 0.5 and 2 hrs before MES stimulation relative to control; assay type: functional
# [31] = test system: Mus musculus; experiment: Anticonvulsant activity in Kunming mouse assessed as reduction in Sc3-MP-induced mortality rate at 300 mg/kg, ip administered 0.5 hrs before Sc3-MP stimulation relative to control; assay type: functional; parameters: scale not given: the % may be the effect or the level left
compound,measurement,setting,value
COc1cc(OC)c(OC)cc1/C=C/COC(=O)/C=C/c1ccc(Cl)cc1,selectivity ratio at 0.5 h,[1],> 18.7
same,Activity,[2],25%
same,Activity,[3],50%
same,Activity,[4],50%
same,ED50,[5],108 mg/kg and 278 µmol/kg
same,Activity,[6],75%
same,Activity,[7],Active
same,ED50,[8],137 µmol/kg and 53.4 mg/kg
same,Activity,[9],100%
same,selectivity ratio at 0.5 h,[10],> 7.1
same,Activity,[11],100%
same,inhibition,[12],< 5%
same,Activity,[13],0%
same,Activity,[14],100%
same,Activity,[15],inactive
same,Activity,[16],25 - 100%
same,ED50,[17],> 200 mg/kg and > 514 µmol/kg
same,selectivity ratio at 0.5 h,[18],> 6.2
same,inhibition,[19],< 9%
same,selectivity ratio at 0.5 h,[20],> 9.3
same,Activity,[21],Active
same,Activity,[22],100%
same,TD50 at 0.5 h,[23],> 2570 µmol/kg and > 1000 mg/kg
same,Activity,[24],50%
same,Activity,[25],50%
same,Activity,[26],Non-Toxic
same,ED50,[27],142 mg/kg and 364 µmol/kg
COc1cc(OC)c(OC)cc1/C=C/CO,selectivity ratio at 0.5 h,[1],11.1
same,ED50,[8],277 µmol/kg and 62 mg/kg
same,Retention_time,[28],67.5 min
same,Activity,[21],Active
same,TD50 at 0.5 h,[23],3070 µmol/kg and 689 mg/kg
same,Activity,[26],Non-Toxic
COc1cc(OC)c(OC)cc1/C=C/C(=O)O[C@@H]1O[C@H](C(=O)O)[C@@H](O)[C@H](O)[C@H]1O,Retention_time,[28],50.1 min
COc1cc(OC)c(OC)cc1/C=C\C(=O)O,Retention_time,[28],78.7 min
COc1cc(OC)c(OC)c(OC)c1/C=C/C(=O)O,Retention_time,[28],81.4 min
COc1cc(OC)c(OC)cc1/C=C/COC(=O)/C=C/c1ccc(Br)cc1,selectivity ratio at 0.5 h,[1],17.1
same,Activity,[2],25%
same,Activity,[3],50%
same,Activity,[4],75%
same,ED50,[5],105 mg/kg and 243 µmol/kg
same,Activity,[6],75%
same,ED50,[8],61.8 mg/kg and 143 µmol/kg
same,Activity,[9],100%
same,selectivity ratio at 0.5 h,[10],5.5
same,Activity,[11],100%
same,inhibition,[12],< 5%
same,Activity,[13],0%
same,Activity,[14],100%
same,Activity,[15],inactive
same,Activity,[16],25 - 100%
same,Activity,[29],Active
same,ED50,[17],> 300 mg/kg and > 692 µmol/kg
same,selectivity ratio at 0.5 h,[18],5
same,inhibition,[19],< 9%
same,selectivity ratio at 0.5 h,[20],10.1
same,Activity,[21],Active
same,Activity,[22],100%
same,TD50 at 0.5 h,[23],2440 µmol/kg and 1060 mg/kg
same,Activity,[24],50%
same,Activity,[26],Non-Toxic
same,ED50,[27],446 µmol/kg and 193 mg/kg
COc1cc(OC)c(OC)c(OC)c1/C=C/C(=O)O[C@@H]1O[C@H](C(=O)O)[C@@H](O)[C@H](O)[C@H]1O,Retention_time,[28],55.2 min
COc1cccc(/C=C/C(=O)OC/C=C/c2cc(OC)c(OC)cc2OC)c1,selectivity ratio at 0.5 h,[1],> 13.7
same,Activity,[2],50%
same,Activity,[3],50%
same,Activity,[4],75%
same,ED50,[5],> 100 mg/kg and > 260 µmol/kg
same,ED50,[8],72.9 mg/kg and 190 µmol/kg
same,Activity,[9],100%
same,selectivity ratio at 0.5 h,[10],> 4.1
same,Activity,[11],100%
same,inhibition,[12],inactive
same,Activity,[13],0%
same,Activity,[14],100%
same,Activity,[15],inactive
same,Activity,[16],25 - 100%
same,ED50,[17],249 mg/kg and 647 µmol/kg
same,selectivity ratio at 0.5 h,[18],> 4
same,inhibition,[19],inactive
same,selectivity ratio at 0.5 h,[20],> 8.9
same,Activity,[21],Active
same,Activity,[30],inactive
same,Activity,[22],100%
same,TD50 at 0.5 h,[23],> 1000 mg/kg and > 2600 µmol/kg
same,Activity,[31],25%
same,Activity,[26],Non-Toxic
same,ED50,[27],247 mg/kg and 643 µmol/kg
COc1cc(OC)c(OC)cc1/C=C/COC(=O)/C=C/c1ccccc1C(F)(F)F,selectivity ratio at 0.5 h,[1],> 11.7
same,Activity,[2],50%
same,Activity,[3],50%
same,Activity,[4],75%
same,ED50,[5],123 mg/kg and 291 µmol/kg
same,ED50,[8],85.7 mg/kg and 203 µmol/kg
same,Activity,[9],100%
same,selectivity ratio at 0.5 h,[10],5
same,Activity,[11],100%
same,inhibition,[12],< 5%
same,Activity,[13],0%
same,Activity,[14],100%
same,Activity,[15],inactive
same,Activity,[16],25 - 100%
same,Activity,[29],Active
same,ED50,[17],> 300 mg/kg and > 710 µmol/kg
same,selectivity ratio at 0.5 h,[18],3.3
same,inhibition,[19],< 9%
same,selectivity ratio at 0.5 h,[20],> 8.1
same,Activity,[21],Active
same,Activity,[30],inactive
same,Activity,[22],100%
same,TD50 at 0.5 h,[23],> 2370 µmol/kg and > 1000 mg/kg
same,Activity,[26],Non-Toxic
same,ED50,[27],> 200 mg/kg and > 474 µmol/kg
COc1cc(OC)c(OC)cc1/C=C/C(=O)O,Retention_time,[28],79.8 min
